# Laboratory results from PubChem BioAssay (NCI).
#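 96-well plates; 48 h exposure; 5 concentrations. Endpoints by linear interpolation between flanking doses. Not reached: highest tested concentration assigned. TGI: total growth inhibition.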
# Tests used:
# Assay in all cases: NCI anticancer screen, dose series, 48 h
# IGROV1 ovarian = system: IGROV1 ovarian
# RXF 393 renal = system: RXF 393 renal
# SK-OV-3 ovarian = system: SK-OV-3 ovarian
# TK-10 renal = system: TK-10 renal
# OVCAR-5 ovarian = system: OVCAR-5 ovarian
# SR leukemia = system: SR leukemia
# OVCAR-4 ovarian = system: OVCAR-4 ovarian
# UO-31 renal = system: UO-31 renal
# HCT-116 colon = system: HCT-116 colon
# SK-MEL-2 melanoma = system: SK-MEL-2 melanoma
# NCI-H522 lung = system: NCI-H522 lung
# SK-MEL-5 melanoma = system: SK-MEL-5 melanoma
# HT29 colon = system: HT29 colon
# SNB-75 CNS = system: SNB-75 CNS
# A498 renal = system: A498 renal
# HCC-2998 colon = system: HCC-2998 colon
# UACC-62 melanoma = system: UACC-62 melanoma
# LOX IMVI melanoma = system: LOX IMVI melanoma
# NCI-H460 lung = system: NCI-H460 lung
# NCI-H23 lung = system: NCI-H23 lung
# SF-268 CNS = system: SF-268 CNS
# LXFL 529 NSCLC = system: LXFL 529 NSCLC
# KM12 colon = system: KM12 colon
# K-562 leukemia = system: K-562 leukemia
# ACHN renal = system: ACHN renal
# CCRF-CEM leukemia = system: CCRF-CEM leukemia
# HCT-15 colon = system: HCT-15 colon
# UACC-257 melanoma = system: UACC-257 melanoma
# DLD-1 colon = system: DLD-1 colon
# DMS 114 small cell lung = system: DMS 114 small cell lung
# MOLT-4 leukemia = system: MOLT-4 leukemia
# NCI-H226 lung = system: NCI-H226 lung
# SW-620 colon = system: SW-620 colon
# OVCAR-3 ovarian = system: OVCAR-3 ovarian
# U251 CNS = system: U251 CNS
# HL-60(TB) leukemia = system: HL-60(TB) leukemia
# SN12C renal = system: SN12C renal
# SF-539 CNS = system: SF-539 CNS
# HOP-18 NSCLC = system: HOP-18 NSCLC
# OVCAR-8 ovarian = system: OVCAR-8 ovarian
# COLO 205 colon = system: COLO 205 colon
# KM20L2 colon = system: KM20L2 colon
# DMS 273 small cell lung = system: DMS 273 small cell lung
# MALME-3M melanoma = system: MALME-3M melanoma
# SF-295 CNS = system: SF-295 CNS
# 786-0 renal = system: 786-0 renal
# M19-MEL melanoma = system: M19-MEL melanoma
# SNB-78 CNS = system: SNB-78 CNS
# EKVX NSCLC = system: EKVX NSCLC
# M14 melanoma = system: M14 melanoma
# A549 NSCLC = system: A549 NSCLC
# RPMI-8226 leukemia = system: RPMI-8226 leukemia
# SK-MEL-28 melanoma = system: SK-MEL-28 melanoma
# HOP-62 NSCLC = system: HOP-62 NSCLC
# HOP-92 NSCLC = system: HOP-92 NSCLC
# HS 578T breast = system: HS 578T breast
# MDA-MB-435 = system: MDA-MB-435
# MCF7 breast = system: MCF7 breast
# CAKI-1 renal = system: CAKI-1 renal
# SNB-19 CNS = system: SNB-19 CNS
# DU-145 prostate = system: DU-145 prostate
# MDA-N = system: MDA-N
# BT-549 breast = system: BT-549 breast
# PC-3 prostate = system: PC-3 prostate
# NCI/ADR-RES ovarian = system: NCI/ADR-RES ovarian
# T-47D breast = system: T-47D breast
# MDA-MB-231 breast = system: MDA-MB-231 breast
smiles,measurement,setting,value
O=C1O/C(=C(\Br)c2cccc3ccccc23)c2ccccc21,TGI,IGROV1 ovarian,> 57.9 µM
same,TGI,RXF 393 renal,> 62.8 µM
same,TGI,SK-OV-3 ovarian,> 55.8 µM
same,TGI,TK-10 renal,> 51.2 µM
same,TGI,OVCAR-5 ovarian,> 54.9 µM
same,TGI,SR leukemia,51.5 µM
same,TGI,OVCAR-4 ovarian,30.9 µM
same,TGI,UO-31 renal,> 56.1 µM
same,TGI,HCT-116 colon,> 61.9 µM
same,TGI,SK-MEL-2 melanoma,> 61 µM
same,TGI,NCI-H522 lung,33 µM
same,TGI,SK-MEL-5 melanoma,51.1 µM
same,TGI,HT29 colon,56.3 µM
same,TGI,SNB-75 CNS,> 87.2 µM
same,TGI,A498 renal,34.6 µM
same,TGI,HCC-2998 colon,> 100 µM
same,TGI,UACC-62 melanoma,> 55.6 µM
same,TGI,LOX IMVI melanoma,> 100 µM
same,TGI,NCI-H460 lung,> 73 µM
same,TGI,NCI-H23 lung,> 55.8 µM
same,TGI,SF-268 CNS,> 55.7 µM
same,TGI,LXFL 529 NSCLC,> 62.7 µM
same,TGI,KM12 colon,> 55.2 µM
same,TGI,K-562 leukemia,> 68.4 µM
same,TGI,ACHN renal,> 55.1 µM
same,TGI,CCRF-CEM leukemia,46.1 µM
same,TGI,HCT-15 colon,> 65.6 µM
same,TGI,UACC-257 melanoma,> 56.1 µM
same,TGI,DLD-1 colon,> 66.7 µM
same,TGI,DMS 114 small cell lung,> 48.4 µM
same,TGI,MOLT-4 leukemia,46.7 µM
same,TGI,NCI-H226 lung,> 55.7 µM
same,TGI,SW-620 colon,> 58.3 µM
same,TGI,OVCAR-3 ovarian,> 57.2 µM
same,TGI,U251 CNS,> 100 µM
same,TGI,HL-60(TB) leukemia,47.7 µM
same,TGI,SN12C renal,47.2 µM
same,TGI,SF-539 CNS,> 100 µM
same,TGI,HOP-18 NSCLC,36.4 µM
same,TGI,OVCAR-8 ovarian,> 62.3 µM
same,TGI,COLO 205 colon,> 53.8 µM
same,TGI,KM20L2 colon,> 59.5 µM
same,TGI,DMS 273 small cell lung,> 54.9 µM
same,TGI,MALME-3M melanoma,> 60.6 µM
same,TGI,SF-295 CNS,> 53.6 µM
same,TGI,786-0 renal,31.4 µM
same,TGI,M19-MEL melanoma,> 58.5 µM
same,TGI,SNB-78 CNS,> 100 µM
same,TGI,EKVX NSCLC,> 59.7 µM
same,TGI,M14 melanoma,> 62.8 µM
same,TGI,A549 NSCLC,35.9 µM
same,TGI,RPMI-8226 leukemia,71.4 µM
same,TGI,SK-MEL-28 melanoma,> 50.2 µM
same,TGI,HOP-62 NSCLC,> 100 µM
same,TGI,HOP-92 NSCLC,> 56.9 µM
CCOC(=O)N1CCN(c2ccc3c(C)cc(C)nc3n2)CC1,TGI,IGROV1 ovarian,> 100 µM
same,TGI,HS 578T breast,> 100 µM
same,TGI,RXF 393 renal,> 100 µM
same,TGI,SK-OV-3 ovarian,> 100 µM
same,TGI,MDA-MB-435,> 100 µM
same,TGI,TK-10 renal,> 100 µM
same,TGI,OVCAR-5 ovarian,> 100 µM
same,TGI,SR leukemia,> 100 µM
same,TGI,OVCAR-4 ovarian,> 100 µM
same,TGI,UO-31 renal,> 100 µM
same,TGI,HCT-116 colon,> 100 µM
same,TGI,SK-MEL-2 melanoma,> 100 µM
same,TGI,NCI-H522 lung,> 100 µM
same,TGI,SK-MEL-5 melanoma,> 100 µM
same,TGI,HT29 colon,> 100 µM
same,TGI,SNB-75 CNS,> 100 µM
same,TGI,A498 renal,> 100 µM
same,TGI,HCC-2998 colon,> 100 µM
same,TGI,UACC-62 melanoma,> 100 µM
same,TGI,LOX IMVI melanoma,> 100 µM
same,TGI,NCI-H460 lung,> 100 µM
same,TGI,NCI-H23 lung,> 100 µM
same,TGI,SF-268 CNS,> 100 µM
same,TGI,KM12 colon,> 100 µM
same,TGI,K-562 leukemia,> 100 µM
same,TGI,ACHN renal,> 100 µM
same,TGI,MCF7 breast,> 100 µM
same,TGI,CCRF-CEM leukemia,> 100 µM
same,TGI,CAKI-1 renal,> 100 µM
same,TGI,HCT-15 colon,> 100 µM
same,TGI,UACC-257 melanoma,> 100 µM
same,TGI,SNB-19 CNS,> 100 µM
same,TGI,MOLT-4 leukemia,> 100 µM
same,TGI,DU-145 prostate,> 100 µM
same,TGI,MDA-N,> 100 µM
same,TGI,NCI-H226 lung,> 100 µM
same,TGI,BT-549 breast,> 100 µM
same,TGI,SW-620 colon,> 100 µM
same,TGI,PC-3 prostate,> 100 µM
same,TGI,OVCAR-3 ovarian,> 100 µM
same,TGI,U251 CNS,> 100 µM
same,TGI,HL-60(TB) leukemia,> 100 µM
same,TGI,SN12C renal,> 100 µM
same,TGI,NCI/ADR-RES ovarian,> 100 µM
same,TGI,SF-539 CNS,> 100 µM
same,TGI,T-47D breast,> 100 µM
same,TGI,OVCAR-8 ovarian,> 100 µM
same,TGI,COLO 205 colon,> 100 µM
same,TGI,MALME-3M melanoma,> 100 µM
same,TGI,SF-295 CNS,> 100 µM
same,TGI,786-0 renal,> 100 µM
same,TGI,EKVX NSCLC,> 100 µM
same,TGI,M14 melanoma,> 100 µM
same,TGI,A549 NSCLC,> 100 µM
same,TGI,RPMI-8226 leukemia,> 100 µM
same,TGI,MDA-MB-231 breast,> 100 µM
same,TGI,SK-MEL-28 melanoma,> 100 µM
same,TGI,HOP-62 NSCLC,> 100 µM
same,TGI,HOP-92 NSCLC,> 100 µM
